# Measured values as given in ChEMBL document CHEMBL5532664, “Discovery, Optimization, and Evaluation of Potent and Selective DNA-PK Inhibitors in Combination with Chemotherapy or Radiotherapy for the Treatment of Malignancies” (J Med Chem, 2024).
# Activity calls are given as the source filed them. The rule behind the calls is not given here.
# Experiments:
# HCT-116 [1] = assay: Inhibition of colony formation in human HCT-116 cells at […] preincubated with compound for 1 hr followed by exposure to 2 Gy gamma irradiation and measured after 7 days by crystal violet staining based chemiluminescence assay relative to control; format: functional; details: HCT-116, light or radiation study, dose 0.25 µM, time 169 hrs
# HCT-116 [2] = assay: Inhibition of colony formation in human HCT-116 cells preincubated with compound for 1 hr followed by exposure to 2 Gy gamma irradiation and measured after 7 days by crystal violet staining based chemiluminescence assay; format: functional, cell-based; details: HCT-116, light or radiation study
# [3] = target: DNA-dependent protein kinase catalytic subunit (Homo sapiens, UniProt P78527)
# Description: Inhibition of human DNA-PK incubated for 30 mins in presence of Mg/ATP by HTRF method
# in vivo [4] = details: Sprague-Dawley, rat, po, 5 mg/kg
# in vivo [5] = details: Sprague-Dawley, rat, iv, 5 mg/kg
# in vivo [6] = details: Sprague-Dawley, rat, plasma, po, 5 mg/kg
# Description: Clearance in Sprague-Dawley rat plasma at 5 mg/kg, po measured upto 24 hrs by LC-MS/MS analysis
# in vivo [7] = details: Sprague-Dawley, rat, plasma, iv, 5 mg/kg
# Description: (§1) Clearance in Sprague-Dawley rat plasma at 5 mg/kg, iv measured upto 24 hrs by LC-MS/MS analysis
# in vivo [8] = details: Sprague-Dawley, rat, po, 5 mg/kg; remark: listed apart in the source
# in vivo [9] = details: Sprague-Dawley, rat, iv, 5 mg/kg; remark: listed apart in the source
# in vivo [10] = details: Sprague-Dawley, rat, po, 5 mg/kg; remark: listed apart in the source
# in vivo [11] = details: Sprague-Dawley, rat, iv, 5 mg/kg; remark: listed apart in the source
# in vivo [12] = details: Sprague-Dawley, rat, po, 5 mg/kg; remark: listed apart in the source
# in vitro = details: human, liver microsomes
# hERG (KCNH2) = hERG (KCNH2) (Homo sapiens, UniProt Q12809); assay: in vitro
# Chain of hERG (KCNH2) (Q12809 whole entry): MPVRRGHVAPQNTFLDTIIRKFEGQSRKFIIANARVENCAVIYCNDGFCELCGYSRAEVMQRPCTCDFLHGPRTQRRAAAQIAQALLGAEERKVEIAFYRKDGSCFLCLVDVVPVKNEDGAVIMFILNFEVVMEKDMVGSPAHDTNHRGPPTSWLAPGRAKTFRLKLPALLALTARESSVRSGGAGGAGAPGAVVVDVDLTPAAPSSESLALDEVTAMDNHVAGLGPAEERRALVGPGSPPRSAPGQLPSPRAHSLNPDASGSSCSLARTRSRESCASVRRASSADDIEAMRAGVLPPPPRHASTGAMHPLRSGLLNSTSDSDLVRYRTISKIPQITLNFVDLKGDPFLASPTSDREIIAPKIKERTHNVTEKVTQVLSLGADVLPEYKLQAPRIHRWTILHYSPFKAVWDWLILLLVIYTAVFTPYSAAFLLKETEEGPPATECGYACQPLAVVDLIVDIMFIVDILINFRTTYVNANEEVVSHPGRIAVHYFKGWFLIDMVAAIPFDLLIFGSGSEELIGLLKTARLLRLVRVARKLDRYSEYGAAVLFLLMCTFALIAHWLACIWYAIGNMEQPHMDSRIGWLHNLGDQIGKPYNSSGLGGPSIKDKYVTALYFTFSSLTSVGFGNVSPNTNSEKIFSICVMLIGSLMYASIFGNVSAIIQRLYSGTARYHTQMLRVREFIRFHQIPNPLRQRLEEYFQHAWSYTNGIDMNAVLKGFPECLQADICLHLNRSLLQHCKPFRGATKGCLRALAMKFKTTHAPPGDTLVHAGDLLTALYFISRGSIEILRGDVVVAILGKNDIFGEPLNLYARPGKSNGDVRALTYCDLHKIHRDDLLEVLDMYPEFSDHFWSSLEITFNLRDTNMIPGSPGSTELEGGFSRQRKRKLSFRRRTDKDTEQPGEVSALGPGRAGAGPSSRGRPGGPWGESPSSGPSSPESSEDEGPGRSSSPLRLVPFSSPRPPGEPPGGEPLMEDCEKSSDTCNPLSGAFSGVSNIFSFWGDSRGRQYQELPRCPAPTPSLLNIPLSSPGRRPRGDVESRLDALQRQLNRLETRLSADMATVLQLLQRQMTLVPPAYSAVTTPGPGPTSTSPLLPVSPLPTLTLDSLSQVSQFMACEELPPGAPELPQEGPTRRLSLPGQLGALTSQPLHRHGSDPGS
# Description: Inhibition of human ERG at 20 uM relative to control
# [13] = rat, in vivo, iv, 5 mg/kg, 24 h
# Description: as §1
# NCI-H460 = assay: Antitumor activity against human NCI-H460 cells xenografted in BALB/ c nude mouse assessed as inhibition of tumor growth at 100 mg/kg, po administered once daily with 2 Gy irradiation and measured upto 7 days by vernier caliper analysis; format: functional, organism-based; details: time <= 7.0 day
# A549 = assay: Antitumor activity against human A549 cells xenografted in BALB/c nude mouse assessed as inhibition of tumor growth at 10 mg/kg, iv administered thrice measured upto 26 days by vernier caliper analysis; format: functional, organism-based; details: time <= 26.0 day
IC50 (HCT-116 [2]) [nM],IC50 [3] [nM],half-life at 24 h (in vivo [4]) [h],half-life at 24 h (in vivo [5]) [h],CL/F at 24 h (in vivo [6]) [mL/min/kg],clearance at 24 h (in vivo [7]) [mL/min/kg],AUC(0-t) at 24 h (in vivo [8]) [ng·h/mL],AUC(0-t) at 24 h (in vivo [9]) [ng·h/mL],Cmax at 24 h (in vivo [10]) [ng/mL],Cmax at 24 h (in vivo [11]) [ng/mL],bioavailability at 24 h (in vivo [12]) [%],"half-life at 5 min, 1 µM (in vitro) [h]",CL [13] [mL/min/kg],Structure (SMILES),inhibition at […] (HCT-116 [1]) [%],inhibition at 20 µM (hERG (KCNH2)) [%],Activity (NCI-H460),Activity (A549)
83.3,0.4,3.72,11.8,62,20.2,1350,4060,733,4290,33.2,10.5,,Cc1cc(-c2nc[nH]n2)ccc1Nc1ncc2c(n1)n(C1CCOCC1)c(=O)n2C,96.9,-0.02,,
,0.2,34.4,9.79,6790,,7.83,29.9,2.24,25.2,36.2,0.327,2420.2,Cc1cc(-c2ccc(C=O)o2)ncc1Nc1ncc2c(n1)n(C1CCOCC1)c(=O)n2C,98.5,4.42,,
27.5,,11.6,7.08,16,11.7,6470,7300,406,1320,88.5,4.81,,Cc1cnc(-c2cnn(C)c2)cc1Nc1ncc2c(n1)n(C1CCOCC1)c(=O)n2C,99.4,,Active,
3.76,0.8,,,,,,,,,,2.51,,Cc1cc(-c2ccsc2)ncc1Nc1ncc2c(n1)n(C1CCOCC1)c(=O)n2C,99.8,,Active,
68,0.4,5.82,1.76,17.7,16.3,4440,5290,760,1890,84,2.78,,Cc1cc(-c2cnn(C(F)F)c2)ncc1Nc1ncc2c(n1)n(C1CCOCC1)c(=O)n2C,96.9,22.7,Active,
48,1,6.73,4.73,22.3,11,3450,7400,341,869,46.6,2.31,,COc1ccc(-c2cc(C)c(Nc3ncc4c(n3)n(C3CCOCC3)c(=O)n4C)cn2)cc1OC,99.9,8.61,Active,
,2,,,,,,,,,,3.04,,Cc1ccc(-c2cnn(C)c2)cc1Nc1ncc2c(n1)n(C1CCOCC1)c(=O)n2C,98,,,
,,,,,,,,,,,,,CC(=O)O[C@H]1C(=O)[C@@]2(C)[C@H]([C@H](OC(=O)c3ccccc3)[C@]3(O)C[C@H](OC(=O)[C@H](O)[C@@H](NC(=O)c4ccccc4)c4ccccc4)C(C)=C1C3(C)C)[C@]1(OC(C)=O)CO[C@@H]1C[C@@H]2O,,,,inactive
,0.4,,,,,,,,,,0.963,,Cc1cc(-c2cn[nH]c2)ncc1Nc1ncc2c(n1)n(C1CCOCC1)c(=O)n2C,86.7,,,
79.3,3,4.37,3.34,10.7,6.33,7860,13200,1960,1960,59.6,19.2,,COc1ccc(-c2cc(C)c(Nc3ncc4c(n3)n(C3CCOCC3)c(=O)n4C)cn2)cn1,96.7,16.8,,
15.2,0.1,7.34,3.45,204,306,277,278,23.8,23.3,99.6,1.96,,Cc1cc(-c2cccs2)ncc1Nc1ncc2c(n1)n(C1CCOCC1)c(=O)n2C,97.9,,Active,
